Data published in US20230285294A1, “METHOD AND SYSTEM FOR OTOTOPICAL DELIVERY USING NANOPARTICLES FOR EAR INFECTION DIAGNOSIS AND TREATMENT” (THE BOARD OF TRUSTEES OF THE LELAND STANFORD JUNIOR …, priority 2020, published 2023).

Tested on: eardrum
Experiment: Confocal microscopy of ear sections: permeation of vesicles through the eardrum into the middle and inner ear
Source text: Further consideration of the various images in FIGS. 10A-11D one may observe from these confocal images of eardrum and vesicles penetration into the middle ear at different time points. To verify the permeation of the formulated vesicles through the eardrum we looked at the ear sections under confocal microscopy. […] (See FIG. 11B).
FIGS. 12A-14D relate to a series of confocal imaging at higher magnification of tympanic membrane.
FIG. 15A is showing imaging specificity of TF-RnB in red. FIG. 15B is showing imaging specificity to DAPI in blue. FIG. 15C is showing a color composite overlay of the images in FIGS. 15A and 15B.
These confocal images from inner ear show particle penetrations beyond the middle ear to inner ear. (FIG. 15C). As such, it is believed that potential applications of various embodiments of a liposomal nanoparticle may be used for inner ear drug delivery.

## CCN(CC)c1ccc2c(-c3ccccc3C(=O)O)c3ccc(=[N+](CC)CC)cc-3oc2c1.[Cl-] [pure RhB, Rhodamine B]
6 hours, FIGS. 12D and 14D
  penetration of tympanic membrane layers (confocal imaging at higher magnification): stays on the surface of tympanic membrane without any penetration
6 h post-treatment
  penetration through eardrum into middle ear (confocal fluorescence): did not observe any fluorescent
